In patent publication US9556099B2 (INDENA S.P.A., priority 2013, dated 2017):

What was measured:
[1] = tested on: neuropathological damage induced by Aβ fibrils; experiment: Neuropathological damage induced by Aβ fibrils in vivo (stereotactic injection into the dorsal hippocampus); settings: male rats, product co-injected with 80 μg Aβ fibrils into the dorsal hippocampus; for Density of reactive astrocytes: control 11 ± 4, fibrils only 39 ± 7; for Measurement of astrocyte soma: control 101 ± 18, fibrils only 310 ± 16
Experimental: To evaluate the potential neuroprotective effect of the products according to the invention, male rats were treated stereotactically in the dorsal hippocampus with 80 μg of Aβ fibrils in the presence or absence of the products.

[2] = Plasma and brain levels in mice treated subacutely by intraperitoneal administration (HPLC/MS/MS); settings: 20 mg/kg i.p. twice a day for 4 days, mean±S.E. of 4 animals
Experimental: In mice treated subacutely (twice a day for 4 days) by intraperitoneal administration at the dose of 20 mg/kg of the products according to the invention, their brain and plasma levels were determined by a combined HPLC/MS/MS analysis technique developed on the basis of a method already described by Keller J. H. et al. (Anal. Chem. 75, 6084, 2003).
Each value is the mean±S.E. of 4 animals. Time 0 corresponds to the 14th hour after the previous treatment

[3] = time 0 h (14th hour after the previous treatment)

Compound | Density of reactive astrocytes [1] | Measurement of astrocyte soma [1] [arbitrary unit] | Brain [2, 3] [ng/g] | Brain/Plasma [2, 3] [%] | Plasma [2, 3] [ng/mL] | Brain ([2]; time 1 h) [ng/g] | Brain/Plasma ([2]; time 1 h) [%] | Plasma ([2]; time 1 h) [ng/mL] | Brain ([2]; time 2 h) [ng/g] | Brain/Plasma ([2]; time 2 h) [%] | Plasma ([2]; time 2 h) [ng/mL] | Brain ([2]; time 4 h) [ng/g] | Brain/Plasma ([2]; time 4 h) [%] | Plasma ([2]; time 4 h) [ng/mL] | Brain ([2]; time 6 h) [ng/g] | Brain/Plasma ([2]; time 6 h) [%] | Plasma ([2]; time 6 h) [ng/mL]
deisopropyl-dehydro tetrahydro adhyperforin | 24 ± 4 GFAP^+ cell./4 × 10^3 μm^2 | 117 ± 9 | – | – | – | – | – | – | – | – | – | – | – | – | – | – | –
CC(C)=CCC[C@]1(C)[C@@H](CC=C(C)C)C[C@@]2(CC=C(C)C)C(=O)[C@]1(C(=O)C(C)C)C(=O)C(CC=C(C)C)=C2O [Hyperforin, hyperforin] | 37 ± 6 GFAP^+ cell./4 × 10^3 μm^2 | 306 ± 14 | 15.2 ± 16.1 | 1.89 ± 0.91 | 624.5 ± 81.8 | 21.1 ± 7.4 | 1.24 ± 0.75 | 1547.2 ± 226.6 | 23.2 ± 7.8 | 1.32 ± 0.82 | 1421.3 ± 235.4 | 32.3 ± 8.1 | 1.91 ± 0.91 | 1275.4 ± 212.8 | 35.6 ± 8.8 | 2.12 ± 1.12 | 1192.6 ± 196.5
